From patent publication US10105362B2, “Anti-tumor use of anagrelide and derivatives thereof” (SHANGHAI INSTITUTE OF MATERIA MEDICA, CHINESE ACADEMY OF …, priority 2013, dated 2018)

Experiments:
Type in all cases: cell-based, human
[1] = test system: HeLa cells; test: Cell migration detection via scratch experiment; settings: 100 nM, serum-free medium, up to 24 hours
Description: The bottom of the six-well plate was uniformly marked with horizontal strips by marker, and then the logarithmic growth phase cells were seeded in the plate by 120×10^4 /mL concentration to make the cells evenly cover the six-well plate, and cells were incubated under 37° C. overnight. Fresh serum-free medium was changed, after the cells were starved for 10 hours, the bottom of six-well plate was scratched perpendicularly to horizontal strips, and washed three times with serum-free medium. After the suspended cells were rinsed, serum-free medium was added and photographed in 0, 2, 6, 12, and 24 hours. Image J was used to calculate the moving distance of the cells. By Scratching assay (HeLa cells were used as an example), the effect of Anagrelide on tumor cell migration was detected.

[2] = test system: FHCC98 cells; test: Cell cycle arrest (summary of experiments)
Description: (§1) Logarithmic growth phase cells were seeded in 6-well culture plate in 5×10^5/mL concentration, 1.5 mL of culture medium in each well, and cultured overnight. Different concentrations of drugs were added to stimulate for a certain time, and then the cells were collected into 1.5 mL EP tube. The cells were washed with cold PBS for 1-2 times, little PBS (about 200 ul) was added and blown to uniform. 1 mL 75% ethanol was pre-cooled (prepared with PBS), and cells was added dropwise into alcohol solution which was oscillated on shaker, fixed under 4° C. overnight. After 1000rpm centrifuged for 5 min, the supernatant was discarded and 1-2 mL PBS was added to wash twice. The cells were suspended with 0.5 mL RnaseA (1.0 mg/ml), and digested under 37° C. for 1 h. The cells were resuspended with 0.5 mL 25 ug/mL PI dye liquor, and were kept in dark place under 4° C. for 30 min. The cells were filtered with 300 mesh sieve, and the cell cycle distribution was analyzed with flow cytometry.

[3] = test system: Bel7404 cells; test: Cell cycle arrest (summary of experiments)
Description: as §1

[4] = test system: H4 cells; test: Cell cycle arrest (summary of experiments)
Description: as §1

[5] = test system: A498 cells; test: Cell cycle arrest (summary of experiments)
Description: as §1

O=C1CN2Cc3c(ccc(Cl)c3Cl)N=C2N1 [Anagrelide, 6,7-dichloro-1,5-dihydro-imidazo [2,1-b] quinazolin-2 (3H)-one]
healing speed of scratch (cell migration) [1]: significantly inhibit the healing speed of scratch
effect on cell cycle (cycle arrest) [2]: the cycle arrest was very strong
effect on cell cycle (cycle arrest) [3]: a significant cycle arrest phenomenon was produced
effect on cell cycle (cycle arrest) [4]: the cycle arrest was very strong
effect on cell cycle (cycle arrest) [5]: a significant cycle arrest phenomenon was produced
